Source: ChEMBL document CHEMBL6103594, “Synthesis and evolution of 16-membered macrolide carrimycin derivatives as a novel class of anti-HCoV-OC43 agents targeting viral FSE RNA” (Eur J Med Chem, 2025)

Columns and labels:
[1] = Selectivity index, ratio of CC50 for cytotoxicity against human NCI-H460 cells to EC50 for antiviral activity against HCoV-OC43 infected in human NCI-H460 cells; assay type: toxicity, cell-based, NCI-460; settings: read-out: Ratio CC50/EC50
Human coronavirus OC43 = experiment: Antiviral activity against HCoV-OC43 infected in human NCI-H460 cells incubated for 72 hrs by CCK8 assay; assay type: functional, organism-based; settings: Betacoronavirus 1, NCI-H460, 72 h
[2] = Cytotoxicity against human NCI-H460 cells incubated for 72 hrs by CCK8 assay; assay type: toxicity, cell-based; settings: read-out: EC50

Row | SMILES | selectivity ratio [1] | EC50 (Human coronavirus OC43) [µM] | CC50 at 72 h [2] [µM]
1 | CCC(=O)O[C@H]1[C@H](O[C@H]2[C@@H](CC=O)C[C@@H](C)[C@@H](O[C@H]3CC[C@H](N(C)C)[C@@H](C)O3)/C=C/C=C/C[C@@H](C)OC(=O)C[C@@H](O)[C@@H]2OC)O[C@H](C)[C@@H](O[C@H]2C[C@@](C)(O)[C@@H](O)[C@H](C)O2)[C@@H]1N(C)C | > 6.9 | 23.4 | > 161
2 | CO[C@@H]1[C@@H](O[C@@H]2O[C@H](C)[C@@H](O[C@H]3C[C@@](C)(O)[C@@H](O)[C@H](C)O3)[C@H](N(C)C)[C@H]2OC(=O)c2ccc(F)c(C(F)(F)F)c2)[C@@H](CC=O)C[C@@H](C)[C@@H](O[C@H]2CC[C@H](N(C)C)[C@@H](C)O2)/C=C/C=C/C[C@@H](C)OC(=O)C[C@H]1O | 3.1 | 1.79 | 5.52
3 | COc1ccc(CCC(=O)O[C@H]2[C@H](O[C@H]3[C@@H](CC=O)C[C@@H](C)[C@@H](O[C@H]4CC[C@H](N(C)C)[C@@H](C)O4)/C=C/C=C/C[C@@H](C)OC(=O)C[C@@H](O)[C@@H]3OC)O[C@H](C)[C@@H](O[C@H]3C[C@@](C)(O)[C@@H](O)[C@H](C)O3)[C@@H]2N(C)C)cc1 | 3 | 4.52 | 13.8
4 | C=CC(=O)O[C@H]1[C@H](C)O[C@@H](O[C@H]2[C@H](N(C)C)[C@@H](OC(C)=O)[C@H](O[C@H]3[C@@H](CC=O)C[C@@H](C)[C@@H](O[C@H]4CC[C@H](N(C)C)[C@@H](C)O4)/C=C/C=C/C[C@@H](C)OC(=O)C[C@@H](O)[C@@H]3OC)O[C@@H]2C)C[C@@]1(C)O | 4 | 4.78 | 18.9
5 | CCCCCC(=O)O[C@H]1[C@H](O[C@H]2[C@@H](CC=O)C[C@@H](C)[C@@H](O[C@H]3CC[C@H](N(C)C)[C@@H](C)O3)/C=C/C=C/C[C@@H](C)OC(=O)C[C@@H](O)[C@@H]2OC)O[C@H](C)[C@@H](O[C@H]2C[C@@](C)(O)[C@@H](O)[C@H](C)O2)[C@@H]1N(C)C | 3.6 | 5.05 | 18.2
6 | CO[C@@H]1[C@@H](O[C@@H]2O[C@H](C)[C@@H](O[C@H]3C[C@@](C)(O)[C@@H](O)[C@H](C)O3)[C@H](N(C)C)[C@H]2OC(=O)C(C)(C)C)[C@@H](CC=O)C[C@@H](C)[C@@H](O[C@H]2CC[C@H](N(C)C)[C@@H](C)O2)/C=C/C=C/C[C@@H](C)OC(=O)C[C@H]1O | 3.6 | 4.5 | 16.2
7 | CO[C@@H]1[C@@H](O[C@@H]2O[C@H](C)[C@@H](O[C@H]3C[C@@](C)(O)[C@@H](O)[C@H](C)O3)[C@H](N(C)C)[C@H]2OC(C)=O)[C@@H](CC=O)C[C@@H](C)[C@@H](O[C@H]2CC[C@H](N(C)C)[C@@H](C)O2)/C=C/C=C/C[C@@H](C)OC(=O)C[C@H]1O | > 6.71 | 29.8 | > 200
8 | CO[C@@H]1[C@@H](O[C@@H]2O[C@H](C)[C@@H](O[C@H]3C[C@@](C)(O)[C@@H](O)[C@H](C)O3)[C@H](N(C)C)[C@H]2OC(=O)C2CCC2)[C@@H](CC=O)C[C@@H](C)[C@@H](O[C@H]2CC[C@H](N(C)C)[C@@H](C)O2)/C=C/C=C/C[C@@H](C)OC(=O)C[C@H]1O | < 2.2 | > 6.25 | 13.7
9 | CO[C@@H]1[C@@H](O[C@@H]2O[C@H](C)[C@@H](O[C@H]3C[C@@](C)(O)[C@@H](O)[C@H](C)O3)[C@H](N(C)C)[C@H]2OC(=O)CC(C)(C)C)[C@@H](CC=O)C[C@@H](C)[C@@H](O[C@H]2CC[C@H](N(C)C)[C@@H](C)O2)/C=C/C=C/C[C@@H](C)OC(=O)C[C@H]1O | 2.7 | 4.89 | 13.4
10 | CC(C)C(=O)OC[C@H]1O[C@@H](n2ccc(NO)nc2=O)[C@H](O)[C@@H]1O [MOLNUPIRAVIR] | 196 | 0.16 | 
